Source: patent US20210162028A1, “Methods for Inducing Intermittent Fasting and Modulating Autophagy” (The Hong Kong Polytechnic University, priority 2019, published 2021)
“Also recorded” adds a separate entry of the source.

Legend:
Assay type in all cases: in vivo, mouse
[1] = tested on: hepatocyte; assay: Transmission electron microscopy of liver (hepatocytes); conditions: DIO C57BL/6J male mice on HFD, 3 weeks, Day 3
From the text: FIG. 47 illustrates the liver examined by transmission electron microscopy at Day 1, Day 3, Day 5 and Day 7 of the 7-day intermittent after N-ABD094-rhArg injection.
The presence of autophagosome in liver after treatment for 3 weeks were examined by TEM (FIGS. 62, 63 and 64).
The presence of autophagosome in liver after treatment for 3 weeks were examined by transmission electron microscopy (FIGS. 71 and 72).

[2] = Hepatic steatosis (oil Red O / H&E staining, liver triglyceride); conditions: DIO C57BL/6J male mice on HFD, 11 weeks after treatment
[3] = Daily food intake / 7-day intermittent fasting cycle in mice; conditions: DIO C57BL/6J male mice on HFD
From the text: One of the most noticeable effects of intermittent fasting is reduction of bodyweight. […] Specifically, C57BL/6J, which is the most commonly used mouse strain for polygenic obesity model, was used in the study. It is well-reported that C57BL/6J male mice feeding on a high-fat diet will have prominent weight gain, become obese and develop hyperinsulinemia, hyperglycemia, impaired glucose tolerance and insulin resistance [Gallou-Kabani et al., 2007, Obesity 15(8):1996-2005]. Obesity was induced in C57BL/6J male mice via feeding ad libitum a high-fat diet containing 60 kcal % fat (HFD; Research Diets, D12492) for 12-14 weeks starting from 5-week old. These mice are referred as diet-induced obese (DIO) mice. DIO mice were stratified according to bodyweight into 2 groups. […] Both groups of mice continued to feed ad libitum on the HFD throughout the treatment period. One group of age-matched C57BL/6J male mice feeding ad libitum on an ordinary rodent chow diet (CD; LabDiet, 50IF/6F) and injected with vehicle served as the lean control [CD (vehicle) group]. Food intake and bodyweight of mice were measured daily. […] DIO mice were injected with rhArg on Day 0, which was Day 7 of the previous cycle. Similarly, Day 7 of the cycle shown in FIG. 1B was Day 0 of the next cycle. […] Bodyweight gain is one of the biomarkers related to aging.
C57BL/6J male mice were fed a high-fat diet from 5-week old for 12 weeks. They were then stratified into 3 groups according to their bodyweight and individually caged: (i) one group of mice received i.p. injection of 600 U N-ABD094-rhArg (SEQ ID NO: 50) once a week [HFD (rhArg) group] and was fed ad libitum the HFD for 5 weeks; (ii) one group of mice received i.p. injection of saline once a week, and was fed a predetermined amount of HFD on each day to artificially create a 7-day intermittent fasting cycle that mimics the pattern of food intake of mice administered once a week with rhArg [HFD (artificial IF) group)]; (iii) one group of mice was injected with saline once a week and was fed ad libitum the HFD [HFD (vehicle) group].

[4] = Insulin tolerance test (ITT); conditions: DIO C57BL/6J male mice on HFD, after 6 weeks
From the text: In terms of reversing insulin resistance on pre-existing obese mice, insulin tolerance test (ITT) was employed (FIG. 59).
In terms of reversing insulin resistance on pre-existing obese mice, insulin tolerance test (ITT) was employed (FIG. 68A).

[5] = Glucose tolerance test (GTT); conditions: DIO C57BL/6J male mice on HFD, after 7 weeks
[6] = Bodyweight of treated mice; conditions: DIO C57BL/6J male mice on HFD
[7] = Fat pad and organ mass at end of treatment; conditions: DIO C57BL/6J male mice on HFD
[8] = rhArg weekly and/or 0.33 mg RA daily
[9] = rhArg weekly and/or 0.33 mg/day RA
[10] = rhArg once a week alone or 0.33 mg RA daily alone
[11] = 300 U/week rhArg and/or 300 mg/kg metformin
[12] = 300 U rhArg once a week and/or 300 mg/kg metformin daily

With `CC1=C(/C=C/C(C)=C/C=C/C(C)=C/C(=O)O)C(C)(C)CCC1` [RA, all-trans retinoic acid, reference compound] the “TEM of liver: autophagosomes” value [1, 8] was “autophagosome was rarely seen; also recorded: no autophagosome is observed”, the “TEM of liver: lipid droplets” value [1, 8] was “significant decrease in lipid droplet size” and the “Lipid in liver (H&E staining)” value ([2]; rhArg and/or RA) was “significant effect on diminishing lipid in liver”. For the same compound, the “Pattern of food intake (intermittent fasting cycle)” value ([3]; 200 U rhArg i.p. once a week and/or 0.33 mg RA daily) was “stable”, the “Total food intake per week, less than HFD (vehicle) group” value ([3]; 200 U rhArg i.p. once a week and/or 0.33 mg RA daily by gastric feeding, 10 weeks) was “slight, but insignificant decrease” and the “Insulin sensitivity in ITT” value [4, 9] was “marginal effect on improving insulin sensitivity but not reach statistical significant”. The “Glucose tolerance in GTT” value [5, 9] was “cannot relieve glucose intolerance”, the “Change in bodyweight under single treatment” value (“Change in bodyweight” below) [6, 10] was “could only prevent further gain in bodyweight, but did not result in weight loss; also recorded: stable body weight without further increase” and the “Mass of organs including liver, pancreas and BAT” value [7, 10] was “can already reduce the mass of most organs”. For the same compound, the “Visceral and subcutaneous fat mass” value ([7]; rhArg once a week and/or 0.33 mg RA daily) was “did not reduce body fat”.

With `CN(C)C(=N)N=C(N)N` [metformin, reference compound] the “TEM of liver: autophagosomes” value [1, 11] was “no autophagosome is observed; also recorded: autophagosome was rarely seen”, the “TEM of liver: lipid droplets” value [1, 11] was “significant decrease in lipid droplet size” and the “Lipid in liver (H&E staining)” value ([2]; rhArg and/or metformin) was “slight effect of diminishing lipid in liver”. For the same compound, the “Pattern of food intake (intermittent fasting cycle)” value ([3]; 300 U rhArg i.p. once a week and/or 300 mg/kg metformin daily) was “stable”, the “Total food intake per week, less than HFD (vehicle) group” value ([3]; 300 U rhArg i.p. once a week and/or 300 mg/kg metformin daily by gastric feeding, 9 weeks) was 13% and the “Insulin sensitivity in ITT” value [4, 11] was “cannot relieve insulin resistant”. The “Glucose tolerance in GTT” value [5, 11] was “cannot relieve glucose intolerance”, the “Change in bodyweight” value ([6]; 300 U rhArg once a week alone or 300 mg/kg metformin daily alone) was “stable body weight without further increase in body mass” and the “Change in bodyweight” value ([6]; 300 U rhArg once a week alone or 300 mg/kg metformin daily alone, listed as Met) was “could only prevent further gain in bodyweight, but did not result in weight loss”. The “Mass of organs including liver, kidney and BAT” value [7, 12] was “cannot reduce the mass of most organs” and the “Visceral and subcutaneous fat mass” value [7, 12] was “did not reduce body fat”.
